Laboratory results as given in ChEMBL document CHEMBL3886748, “Indazole derivatives useful as ERK inhibitors” (2016).
pIC50: −log10 of the molar value.

Molecular target: Mitogen-activated protein kinase 1 (Mus musculus, UniProt P63085)
Assay: Active ERK2 (aERK) Assay: Activated ERK2 activity was also determined in the IMAP assay format using the procedure outlined above. 1 μl of 25× compound was added to 14 μl of kinase buffer containing 0.25 ng fully phosphorylated, active Mouse ERK2 protein. Following a 30 minute incubation, the reactions were initiated by addition of 10 μl of kinase buffer containing 1 μM ERK2 IMAP substrate peptide (0.9 μM unlabeled IPTTPITTTYFFFK-CONH2 and 100 nM IPTTPITTTYFFFK(5-carboxyfluorescein)-CONH2) and 30 μM ATP. Reactions proceeded for 30 minutes before termination by addition of 60 μl IMAP detection beads in binding buffer. Plates were read as above after 30 minute binding equilibration. Active compounds were reconfirmed in an independent assay.

Mitogen-activated protein kinase 1, sequence (P63085 whole entry): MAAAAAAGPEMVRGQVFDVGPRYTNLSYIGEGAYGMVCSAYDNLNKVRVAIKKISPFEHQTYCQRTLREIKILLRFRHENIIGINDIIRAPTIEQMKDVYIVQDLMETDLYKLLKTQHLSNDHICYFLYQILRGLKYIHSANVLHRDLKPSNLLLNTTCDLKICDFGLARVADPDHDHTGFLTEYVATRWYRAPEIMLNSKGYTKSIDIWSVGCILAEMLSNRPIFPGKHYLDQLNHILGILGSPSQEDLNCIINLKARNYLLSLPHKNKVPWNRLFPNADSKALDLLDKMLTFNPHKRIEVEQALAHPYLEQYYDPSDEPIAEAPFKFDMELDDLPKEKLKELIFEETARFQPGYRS

| pIC50 | SMILES |
| --- | --- |
| 6.11 | Cc1cc(-c2n[nH]c3ccc(C(=O)N[C@H]4CCC[C@@](O)(Cn5cc6cc(F)ccc6n5)C4)cc23)ccn1 (relative stereo) |
| 6.39 | Cc1cc(-c2n[nH]c3ccc(C(=O)N[C@@H]4CCC[C@](O)(Cn5cc6cccnc6n5)C4)cc23)ccn1 (relative stereo) |
